Data on one molecule can be found in US20210205292A1, “INHIBITORS OF CREB-CBP INTERACTION FOR TREATMENT OF LEUKEMIA” (The Board of Trustees of the Leland Stanford Junior …, priority 2016, published 2021).

One data set concerns CMV-driven promoter. As to the kind of experiment: CMV-driven luciferase reporter in KG-1 cells. Type of data set: cell-based. Particulars: 6 hours. The protocol: KG-1 cell lines were created to express luciferase in a CREB-dependent or non-CREB-dependent fashion using lentiviral gene delivery. Cells were sorted for mCherry expression by flow cytometry and selected with puromycin. Luciferase activity was measured on a […] using the Promega Luciferase Activity Kit (Promega) per manufacturer's instructions following six hours of treatment with Compound A or 0.1% DMSO. The split Renilla luciferase complementation assay has been described previously (Li BX, and Xiao X. Discovery of a small-molecule inhibitor of the KIX-KID interaction. Chembiochem: a European journal of chemical biology. 2009; 10(17):2721-4). In this assay, the KID and KIX domains were fused to the N- and C-terminal regions of Renilla luciferase, respectively. Once KIX binds phosphorylated KID, the Renilla luciferase regions were brought together, resulting in luciferase activity.
To test the ability of Compound A to disrupt CREB-CBP binding in cells, a split Renilla luciferase complementation assay was performed. […] This early timepoint was selected to permit accurate reporter gene activity measurement prior to the onset of anticipated global cell dysfunction or death induced by Compound A. Treatment with 3 μM Compound A reduced luciferase activity by 33.2±7.7% at this timepoint. […] Thus, Compound A inhibits CREB function through disruption of CREB:CBP interaction.
In general terms: Reporter assays use an easily measured gene product as a stand-in for the process of interest.

The subject of another data set is HL-60 AML cells. As to the kind of experiment: HL-60 AML xenograft in NSG mice. Particulars: for GFP+ cells in bone marrow / GFP+ cells in spleen / spleen weight: endpoint. Type of data set: in vivo. The protocol:
For AML xenograft mouse experiments, HL-60 cells (2×10^6) expressing firefly luciferase and GFP, or cryopreserved human AML patient cells (5×10^6), were injected through the tail vein into NOD.Cg-prkdc^scid Il2rg^tm1WjlSzJ (NSG) mice. Mice were then Compound A or 10% DMSO, injected intravenously by tail vein daily, until death or an endpoint was reached (moribundity) in accordance with the animal care institutional guidelines. All mouse experiments were subject to institutional approval by Stanford University Institutional Animal Care and Use Committee. Leukemia progression in mice at the indicated time points was monitored using an in vivo IVIS 100 bioluminescenceoptical imaging system (Xenogen Corporation). D-Luciferin (Promega) dissolved in sterile phosphate-buffered saline was injected intraperitoneally at a dose of 2.5 mg/kg, 15 minutes before measuring the luminescent signal. General anesthesia was induced with […] and continued during the procedure using a nose cone. Analysis was performed on Living Image In Vivo imaging software (Perkin-Elmer). Imaging was performed in collaboration with the Stanford Small Animal Imaging Facility. Bone marrow was aspirated from bone marrow cavities, and GFP+ cells were sorted using the FACSCalibur flow cytometer (BD Biosciences).
To examine the efficacy of CREB inhibition in an in vivo model of AML, 4-6 week old NOD.Cg-Prkdc^scid Il2rg^tm1WjlSzJ (NSG) mice were tail-vein injected with HL-60 AML cells (2×10^6) expressing Firefly luciferase and GFP. Groups of ten mice received 10% DMSO or 2.3 mg/kg Compound A intravenously (IV) once daily starting the day after cell injection (immediate treatment groups), or one of the same two treatments starting seven days after AML cell injection (delayed treatment groups). This dose of Compound A was selected, as it was the maximum deliverable IV injection concentration and volume in 10% DMSO solution per gram mouse body weight. […] The efficacy of Compound A was also assessed in a mouse xenograft model using primary AML cell sample (patient sample #186), using similar methods.

In data set [1] the test system is Bcl-2, Mcl-1 expression in KG-1 cells. In words: Western blot of anti-apoptotic proteins in KG-1 cells. The data set is classed as cell-based. How it is done:
Cells were lysed in RIPA buffer (Sigma), and the protein concentrations were determined by BCA assay (Thermo Scientific Pierce). Lysates were solubilized in 6×SDS PAGE buffer and […] of protein was loaded into 6-15% SDS PAGE gels, pheresed, and then transferred onto […] PVDF membrane (Millipore). Primary antibodies were applied at a dilution of 1:1000. Anti-Bcl-2, -Bax, -Mcl-1, -Bcl-XL, -Cyclin A and -Cyclin D1 antibodies were purchased from Cell Signaling Technologies. Anti-total acetylated histone and -ac-H3K27 were purchased from Santa Cruz Biotechnologies. Anti-actin and -CREB antibodies were purchased from upstate. Secondary antibodies were used at a 1:2500 dilution and purchased from Thermo Scientific/Pierce. WesternBright ECL was used for image acquisition on Image Lab software (Bio-Rad).
The balance between pro- and anti-apoptotic protein expression contributes to cell fate decisions. CREB regulates the expression of several anti-apoptotic proteins, including Bcl-2, Bcl-XL and Mcl-1. Bcl-2 expression in particular is known to mediate resistance to chemotherapy and influence clinical outcome in a number of cancer types, including AML. The ability of Compound A to cause apoptosis by disrupting the CREB-driven expression of these anti-apoptotic proteins was examined. In HL-60 cells treated with Compound A, apoptosis is induced in a dose- and time-dependent manner. […]
A general note: In western blotting, separated proteins are transferred to a membrane and probed.

Where [2] appears, read: delayed treatment group (from day 7), 2.3 mg/kg IV once daily.
Setting [3] is: immediate treatment group, 2.3 mg/kg IV once daily.

Consider `N#Cc1ccc(NC(=O)c2cc3ccccc3cc2O)cc1` [Compound A, N-(4-cyanophenyl)-3-hydroxy-2-naphthamide], for which the CMV-driven luciferase expression result with CMV-driven promoter is listed as “unchanged”. For the same molecule, in the data set with HL-60 AML cells (Compound A-treated group), the “mean weight of visceral tumors” value turned out to be 0.027 ± 0.019 g and the “mice that developed visible visceral tumors (chloromas)” value was 4 of 10. Besides, in the data set with HL-60 AML cells (across groups), the liver weights result was “no differences in liver weights”. In addition, the “circulating leukemia cells (blood counts and smear)” value with HL-60 AML cells (at the time of sacrifice) was “none of the Compound A-treated mice had detectable circulating leukemia cells”. Moreover, in the data set with HL-60 AML cells (delayed group), the “GFP+ cells in bone marrow” value is listed as 19.9±8.22%, the “GFP+ cells in spleen” value is 4.1±1.44% and the spleen weight worked out at 50.6 ± 9.1 mg. For the same molecule, in the data set with HL-60 AML cells (setting [2]), the mean survival was found to be 26.4 days and the median survival came out at 24 days. Further, the “average radiance (bioluminescence imaging)” value in the data set with HL-60 AML cells (delayed treatment, 2.3 mg/kg IV once daily, day 17) is 2.8×10^5 p/sec/cm^2/sr. In the data set with HL-60 AML cells (immediate group), the “GFP+ cells in bone marrow” value was found to be 9.3±1.28%, the “GFP+ cells in spleen” value is recorded as 0.64±0.27% and the spleen weight came to 43.3 ± 3.6 mg. In the data set with HL-60 AML cells (setting [3]), this molecule came in with a mean survival of 31.2 days and a median survival of 31 days. Besides, in data set [1], the Bcl-2 expression entry is listed as “decreased Bcl-2 expression” and the Mcl-1 expression entry is “pronounced decrease in Mcl-1”.
